{"source": "patent US20130195925A1", "about": "“ANTI AGING APPLICATION AND METHOD FOR TREATING AGING” (VASKIN, LLC, priority 2011, published 2013)", "origin": "cited, not measured here", "key": {"[1]": {"conditions": "thought to be; compared with vitamin E"}, "[2]": {"system": "UVB-induced pigmented skins of brownish guinea pigs", "conditions": "0.5% Glabridin solution applied topically; backs of brownish guinea pigs"}, "[3]": {"system": "co-culture model of melanocytes and keratinocytes", "conditions": "fluorochrome transfer, flow cytometry"}, "stem cell factor": {"system": "stem cell factor", "conditions": "human keratinocyte cell culture"}, "wounds": {"system": "wounds", "conditions": "solution containing 5%"}, "[4]": {"conditions": "in vivo"}, "[5]": {"conditions": "in vivo", "remark": "listed apart in the source"}}}
{"smiles": "O=C(O[C@@H]1Cc2c(O)cc(O)cc2O[C@@H]1c1cc(O)c(O)c(O)c1)c1cc(O)c(O)c(O)c1", "note": "[EGCG, Epigallocatechin galate]", "values": [{"measurement": "power for neutralizing free radicals relative to vitamin E", "setting": "[1]", "value": 200, "unit": "times"}]}
{"smiles": "CC1(C)C=Cc2c(ccc3c2OC[C@@H](c2ccc(O)cc2O)C3)O1", "note": "[Glabridin]", "values": [{"measurement": "pigmentation induced by UVB radiation", "setting": "[2]", "value": "significantly reduced pigmentation"}]}
{"smiles": "NC(=O)c1cccnc1", "note": "[Niacinamide]", "values": [{"measurement": "downregulation of the amount of melanosomes transferred", "setting": "[3]", "value": "35%-68%"}]}
{"smiles": "COc1cc(CCC(=O)CC(=O)CCc2ccc(O)c(OC)c2)ccc1O", "note": "[Tetrahydrocurcumin]", "values": [{"measurement": "safety for topical use", "value": "no irritant or sensitization side effects"}]}
{"smiles": "C=CCCCCCCCCC(=O)N[C@@H](Cc1ccccc1)C(=O)O", "note": "[Undecylenoyl phenylalanine]", "values": [{"measurement": "gene expression and protein release of stem cell factor", "setting": "stem cell factor", "value": "suppresses"}]}
{"smiles": "CC(=O)Oc1c(C)c(C)c2c(c1C)CCC(C)(CCC[C@H](C)CCC[C@H](C)CCCC(C)C)O2", "note": "(some centres unmarked) [Vitamin E acetate, Tocopheryl acetate]", "values": [{"measurement": "wound healing time", "setting": "wounds", "value": "decreased the healing time required"}]}
{"smiles": "O=c1cc(CO)occ1O", "note": "[kojic acid]", "values": [{"measurement": "carcinogenic properties", "setting": "[4]", "value": "may have some carcinogenic properties"}, {"measurement": "dermatitis", "setting": "[5]", "value": "can lead to dermatitis in some people"}]}
